Test results published in patent US20180140578A1, “METHODS AND COMPOSITIONS FOR THE DIAGNOSIS AND SELECTIVE TREATMENT OF CANCER” (Board of Regents of the University of Texas System, priority 2016, published 2018).
Entries after “also recorded” stand apart in the source; their conditions may differ. Read-outs that look alike come from different tables or passages of the source.

Legend:
[1] = tested on: tumors derived from HCT-116 cells expressing RBM39 G268V; assay: Mouse xenograft model, HCT-116 RBM39 G268V; assay type: in vivo, Nod-Scid IL-2Rγ KO mice
Procedure: All animal work was approved by the Institutional Animal Care and Use Committee at UTSW. UTSW is accredited by the Association for Assessment and Accreditation of Laboratory Animal Care International (AAALAC). Animals were obtained from the UTSW Breeding Core Facility. Nod-Scid IL-2Rγ KO mice were implanted with 5 million parental HCT-116 cells or HCT-116 cells expressing RBM39 G268V in a volume of 0.1 ml in the left flank. Tumor volumes were measured every 2-4 days with calipers. Volume is calculated as (L*W^2)*3.14)/6.

HCC2279 = assay: IC50 assay, NSCLC cell lines (Cell Titer Glo, total ATP); assay type: cell-based; details: Homo sapiens
Procedure, shortened: (§1)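 Read-out: total cellular ATP by CellTiter-Glo after 3 days in a 5% CO2 incubator. Plating was at ~15% confluence in RPMI containing 5% fetal bovine serum plus 2 mM L-glutamine.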

HCC4006 = assay: as above; assay type: cell-based; details: Homo sapiens
Procedure, shortened: as §1

H1693 = assay: as above; assay type: cell-based; details: Homo sapiens
Procedure, shortened: as §1

H1648 = assay: as above; assay type: cell-based; details: Homo sapiens
Procedure, shortened: as §1

H920 = assay: as above; assay type: cell-based; details: Homo sapiens
Procedure, shortened: as §1

H1975 = assay: as above; assay type: cell-based; details: Homo sapiens
Procedure, shortened: as §1

HOP62 = assay: as above; assay type: cell-based; details: Homo sapiens
Procedure, shortened: as §1

H1993 = assay: as above; assay type: cell-based; details: Homo sapiens
Procedure, shortened: as §1

[2] = tested on: RBM39 with indisulam-resistant mutations; assay: RBM39 degradation in resistant cells (western blotting); assay type: cell-based, human; details: resistant cells harboring indisulam-resistant mutations
Procedure: Proteins were resolved on SDS-PAGE and transferred to 0.5 μm nitrocellulose membranes. Membranes were blocked in 5% milk TBST for 30 min, and then anti-RBM39 antibodies (HPA001591, Sigma-Aldrich) were added in 5% milk (1:5000) and incubated on a shaker overnight at 4° C. After three 5 min washes with TBST, membranes were incubated with HRP-conjugated goat anti-rabbit secondary antibody (Bio-Rad) for 2 hr at room temperature. After three 5 min washes with TBST, membranes were developed with ECL (enhanced chemiluminescence) substrates.

[3] = target: T1, RBM39-3xFLAG with DDA1, DDB1, CUL4A, CUL4B (Homo sapiens, UniProt Q14498+Q66K64); assay: Co-immunoprecipitation of RBM39-3xFLAG from treated cells; assay type: cell-based; details: cells treated with indisulam but not DMSO
T1 construct: endogenous in cells; host or cells: HCT-116 RBM39-3xFLAG knock-in cells (treated cells in A90)
Procedure: Anti-Flag M2 antibody (Sigma-Aldrich) was coupled to Dynabeads M-270 epoxy beads (Life Technologies) at the ratio of 10 μg of antibody/mg beads. […] Frozen cells were then pulverized in the a cryomill (Retsch) with one 25 mm steel ball and five cycles of three min at 25 Hz with intermittent cooling in liquid nitrogen. […] The lysates were centrifuged at 8000 g for 5 min at 4° C. 12 mg of conjugated Anti-Flag magnetic beads were mixed with clarified lysates for 5 min at 4° C. on a rotating platform, followed by three washes with IP buffer. Bound proteins were eluted with 1 mg/ml 3xFLAG peptide, followed by SDS-PAGE on a 10% Bis Tris gel. After brief electrophoresis, bands containing all the proteins were cut with clean blades. For western blotting of co-immunoprecipitated proteins, anti-DDA1 (ProteinTech, 14995-1-AP, 1:1000), anti-DDB1 (Abcam, ab109027, 1;10000), anti-CUL4A (Cell Signaling, 2699, 1:1000), anti-CUL4B (ProteinTech, 12916-1-AP, 1:1000) were used.

[4] = read-out: Indisulam IC50 (log 10) (converted), U2AF1 WT
[5] = read-out: Indisulam IC50, U2AF1 WT

With NS(=O)(=O)c1ccc(S(=O)(=O)Nc2cccc3c(Cl)c[nH]c23)cc1 [Indisulam, indisulam] the tumor response ([1]; 25 mg/kg indisulam intravenous once a day for eight days, RBM39 G268V) was “grew at a rate indistinguishable from that of the control group; also recorded: resistant”, the “Average maximal weight loss from start of therapy to 1 day post final dose” value ([1]; G268V xenograft, 25 mg/kg once a day for eight days) was 8.4% and the IC50 (HCC2279; [4]) was 5.68 µM. For the same compound, the IC50 (HCC2279; [5]) was 5.68 µM, the IC50 (HCC4006; [4]) was 735 nM and the IC50 (HCC4006; [5]) was 735 nM. It also gave an IC50 (H1693; NCI-H1693, read-out: Indisulam IC50 (log 10) (converted), U2AF1 WT) of 5.17 µM, an IC50 (H1693; NCI-H1693, read-out: Indisulam IC50, U2AF1 WT) of 5.17 µM and an IC50 (H1648; NCI-H1648, read-out: Indisulam IC50 (log 10) (converted), U2AF1 WT) of 16.8 µM. It also gave an IC50 (H1648; NCI-H1648, read-out: Indisulam IC50, U2AF1 WT) of 16.8 µM, an IC50 (H920; [4]) of 2170 nM and an IC50 (H920; [5]) of 2170 nM. For the same compound, the IC50 (H1975; NCI-H1975, read-out: Indisulam IC50 (log 10) (converted), U2AF1 WT) was 1510 nM, the IC50 (H1975; NCI-H1975, read-out: Indisulam IC50, U2AF1 WT) was 1510 nM and the IC50 (HOP62; HOP-62, read-out: Indisulam IC50 (log 10) (converted), U2AF1 WT) was 6.08 µM. For the same compound, the IC50 (HOP62; HOP-62, read-out: Indisulam IC50, U2AF1 WT) was 6.08 µM, the IC50 (H1993; NCI-H1993, read-out: Indisulam IC50 (log 10) (converted), U2AF1 WT) was 1420 nM and the IC50 (H1993; NCI-H1993, read-out: Indisulam IC50, U2AF1 WT) was 1420 nM. The RBM39 protein levels [2] was “no effect” and the “co-purification of RBM39-3xFLAG with DDA1, DDB1, CUL4A, CUL4B” value [3] was “co-purified”.
